# Experimental data taken from patent US11911346B2, “Orally administrated therapeutic for treating mild cognitive impairment (MCI) and improving human cognitive function” (BrainCare LLC, priority 2021, dated 2024).
# “And” between values parts separate entries of the source, which are not always exact repeats. Equal values may be shown once.
# Assays:
# [1] = tested on: salivary testosterone; settings: olfactory exposure to 3% BCP over 20 minutes, women with low libido; cited from earlier work
# [2] = tested on: cognitive function of participants with Subjective Cognitive Decline; experiment: Cambridge Brain Sciences (CBS) battery, combined means of all four tests; type: in vivo, human
# Excerpt: (§1) The Cambridge Brain Sciences (CBS) included a battery of four tests to measure various aspects of cognition and that affected different regions of the brain. Normal scores for each test ranged from 87 to 113.
# (§2) For Cambridge Brain Sciences tests, some responses were flagged as being a highly unusual response (found in less than 1% of Cambridge Brain Sciences normative database). […] These scores were considered to be invalid and excluded from the final analysis. For each participant, the combined mean scores of all four CBS tests were summed for at baseline and at week 8. The participants were then grouped according to these mean baseline score of all four tests as: below average (less than or equal to 100) and average and above (greater than 100).
# [3] = tested on: visuospatial and working memory of participants with Subjective Cognitive Decline; experiment: Cambridge Brain Sciences (CBS) Monkey Ladder test; type: in vivo, human; settings: for Monkey Ladder actual score: Week 4, normal 87-113
# Excerpt: as §1
# The third test is the Monkey Ladder, which relates visuospatial and working memory. The test can detect early Alzheimer's disease, non-Alzheimer's dementia, and age-related cognitive decline. The parts of the brain involved included: the mid-dorsolateral prefrontal cortex, premotor cortex, and posterior parietal cortex.
# (§3) The data are presented as mean±standard deviation (S.D.) at baseline, week 4, and week 8. Results from the Cognitive Failures Questionnaire and Cambridge Brain Sciences are compared using the Student's t-test in each intervention group between baseline and week 4 and between baseline and week 8. Significance was defined as p≤0.05. At each time point, the percentage change was compared with the values at baseline. This calculation was only obtained from the means between each time point, and the statistical analysis was not made on these percentage changes.
# as §2
# [4] = tested on: reasoning and planning of participants with Subjective Cognitive Decline; experiment: Cambridge Brain Sciences (CBS) Spatial Planning test; type: in vivo, human
# Excerpt: as §1
# The first test is the Spatial Planning test, which addresses reasoning and planning. It tests for non-Alzheimer's dementia but has a high correlation with aging. It has a high reproducibility and is useful to distinguish impaired and unimpaired populations. The parts of the brain implicated include: frontal lobe, mid-dorsolateral frontal cortex, caudate nucleus, thalamus, lateral premotor, and anterior cingulate.
# as §3, §2
# [5] = tested on: acute or chronic pain; settings: 60 mg of BCP daily, by day 4; 31 participants; cited from earlier work
# [6] = one capsule daily (90 mg BCP), all participants
# [7] = one capsule daily (90 mg BCP), baseline mean greater than 100
# [8] = one capsule daily (90 mg BCP), baseline mean less than or equal to 100
# [9] = two capsules daily (180 mg BCP), all participants
# [10] = two capsules daily (180 mg BCP), baseline mean greater than 100
# [11] = two capsules daily (180 mg BCP), baseline mean less than or equal to 100
# [12] = one capsule daily (90 mg BCP), N=23
# [13] = one capsule daily (90 mg BCP), Week 8, over 8 weeks
# [14] = two capsules daily (180 mg BCP), N=25
# [15] = one capsule daily (90 mg BCP), N=26
structure (smiles),measurement,setting,value
"C=C1CC/C=C(\C)CC[C@@H]2[C@@H]1CC2(C)C [BCP, beta-caryophyllene]",Salivary testosterone vs. control period,[1],increased
same,% of subjects with sub-optimal baseline score (less than 87) who improved to a normal score on any test,"[2]; one capsule daily (90 mg BCP), during the 8-week study",31%
same,Mean of four tests scores at week 8,[2]; [6],99.8
same,"Percentage change (mean ± S.D.) of mean of four tests scores, baseline to week 8",[2]; [6],3.6±10.0%
same,Mean of four tests scores at week 8,[2]; [7],108.7
same,"Percentage change (mean ± S.D.) of mean of four tests scores, baseline to week 8",[2]; [7],−0.7±9.4%
same,Mean of four tests scores at week 8,[2]; [8],96.8
same,"Percentage change (mean ± S.D.) of mean of four tests scores, baseline to week 8",[2]; [8],5.0±9.8% and 5%
same,Mean of four tests scores at week 8,[2]; [9],101.0
same,"Percentage change (mean ± S.D.) of mean of four tests scores, baseline to week 8",[2]; [9],4.6±12.1%
same,Mean of four tests scores at week 8,[2]; [10],104.2
same,"Percentage change (mean ± S.D.) of mean of four tests scores, baseline to week 8",[2]; [10],−1.5% and −1.5 ± 7.5%
same,Mean of four tests scores at week 8,[2]; [11],98.8
same,"Percentage change (mean ± S.D.) of mean of four tests scores, baseline to week 8",[2]; [11],9.0±12.9% and 9%
same,Monkey Ladder: % of participants with no change between baseline and week 8,[3]; [12],(4%)
same,Monkey Ladder: number of participants improved between baseline and week 8,[3]; [12],16
same,Monkey Ladder: number of participants with no change between baseline and week 8,[3]; [12],1
same,Monkey Ladder: number of participants worsened between baseline and week 8,[3]; [12],6
same,Monkey Ladder actual score,[3]; one capsule daily (90 mg BCP),103.8 ± 6.7
same,Monkey Ladder percentage change,[3]; [13],+2.5%
same,Monkey Ladder: % of participants with no change between baseline and week 8,[3]; [14],(28%)
same,Monkey Ladder: number of participants improved between baseline and week 8,[3]; [14],17
same,Monkey Ladder: number of participants with no change between baseline and week 8,[3]; [14],7
same,Monkey Ladder: number of participants worsened between baseline and week 8,[3]; [14],1
same,Monkey Ladder actual score,[3]; two capsules daily (180 mg BCP),103.7 ± 8.1
same,Spatial Planning: % of participants with no change between baseline and week 8,[4]; [15],(8%)
same,Spatial Planning: number of participants improved between baseline and week 8,[4]; [15],19
same,Spatial Planning: number of participants with no change between baseline and week 8,[4]; [15],2
same,Spatial Planning: number of participants worsened between baseline and week 8,[4]; [15],5
same,Spatial Planning actual score,"[4]; one capsule daily (90 mg BCP), Week 4, normal 87-113",104 ± 9
same,Spatial Planning percentage change,[4]; [13],+2.3%
same,Spatial Planning: % of participants with no change between baseline and week 8,[4]; [14],(8%)
same,Spatial Planning: number of participants improved between baseline and week 8,[4]; [14],18
same,Spatial Planning: number of participants with no change between baseline and week 8,[4]; [14],2
same,Spatial Planning: number of participants worsened between baseline and week 8,[4]; [14],5
same,% of participants reporting mitigation of pain,[5],60%
